Test results published in the CheMixHub viscosity set.
“And” between values parts separate entries of the source, which are not always exact repeats. Equal values may be shown once.

Assay: xn = mol fraction of the nth substance listed

CCCN + CCCCCCCCO
viscosity [mPa·s], 101.33 kPa
Settings	x1 = 0.1005	x1 = 0.1898	x1 = 0.3064	x1 = 0.385	x1 = 0.4834	x1 = 0.5835	x1 = 0.6813	x1 = 0.7916	x1 = 0.8908
303.15 K	4.988	4.15	3.23	2.689	2.107	1.601	1.182	0.8056	0.5464
313.15 K	3.651	3.052	2.37	1.976	1.563	1.203	0.9234	0.6649	0.4703

CCCCCCCC[N+](C)(C)CCOCCO.Cc1cc(Cl)ccc1OCC(=O)[O-] + CCCCCCCC[N+](C)(C)CCOCCO.COc1c(Cl)ccc(Cl)c1C(=O)[O-]
100 kPa, x1 = 0.58
Settings	viscosity
293.15 K	12650 mPa·s and 12650 mPa·s
303.15 K	4260 mPa·s
313.15 K	1780 mPa·s
323.15 K	831.5 mPa·s

CN1CCCN(C)C1=O + CCCCCCCCn1cc[n+](C)c1.[Cl-]
308.15 K, 100 kPa
Settings	viscosity [mPa·s]
x2 = 0.0999	7.275
x2 = 0.2997	61.15

CCCN + CCCCCCCO
viscosity [mPa·s], 101.33 kPa
Settings	x1 = 0.0918	x1 = 0.1876	x1 = 0.2917	x1 = 0.3927	x1 = 0.4818	x1 = 0.6142	x1 = 0.7167	x1 = 0.7997	x1 = 0.9056
303.15 K	4.047	3.35	2.669	2.114	1.687	1.177	0.8748	0.678	0.4813
313.15 K	3.046	2.522	2.023	1.593	1.28	0.9105	0.6933	0.5549	0.4105

CN1CCCN(C)C1=O + CCCCCCn1cc[n+](C)c1.[Cl-]
100 kPa
Settings	viscosity [mPa·s]
298.15 K, x2 = 0.3083	45.85
308.15 K, x2 = 0.3981	63.85

CCCCOC(C)=O + CCCCCO
viscosity [mPa·s], 101 kPa
Settings	x1 = 0.0963	x1 = 0.2032	x1 = 0.2987	x1 = 0.4058	x1 = 0.4868	x1 = 0.5981	x1 = 0.7048	x1 = 0.7976	x1 = 0.8954
298.15 K	2.974	2.512	2.15	1.797	1.561	1.284	1.059	0.907	0.769
303.15 K	2.593	2.191	1.886	1.573	1.37	1.14	0.963	0.846	0.723
308.15 K	2.287	1.933	1.669	1.396	1.223	1.025	0.875	0.776	0.678
313.15 K	2.018	1.714	1.483	1.261	1.107	0.941	0.809	0.717	0.639

CCCN + CCCCCO
viscosity [mPa·s], 101.33 kPa
Settings	x1 = 0.0915	x1 = 0.1847	x1 = 0.3069	x1 = 0.4139	x1 = 0.4894	x1 = 0.581	x1 = 0.7163	x1 = 0.8117	x1 = 0.9
303.15 K	2.504	2.167	1.755	1.431	1.224	0.9914	0.7168	0.5615	0.4508
313.15 K	2.066	1.79	1.437	1.176	1.003	0.8193	0.6111	0.488	0.3958

CCOC(=O)c1ccc(O)cc1 + CCCCCOC(C)=O
Settings	viscosity [mPa·s]
298.15 K, 101 kPa, x1 = 0.5	1.66

Oc1ccccc1Cl + CCCCCOC(C)=O
Settings	viscosity [mPa·s]
298.15 K, 101 kPa, x1 = 0.5	1.202

CCCN + CCCCN(CCCC)CCCC
303.15 K, 101 kPa
Settings	viscosity [mPa·s]
x2 = 0.2025	0.5088
x2 = 0.4055	0.6949
x2 = 0.4953	0.7795
x2 = 0.603	0.8793
x2 = 0.7931	1.04

Oc1ccccc1Cl + CCCCN(CCCC)CCCC
298.16 K, 101 kPa
Settings	viscosity [mPa·s]
x1 = 0.5022	21.91
x1 = 0.5499	34.61
x1 = 0.6012	82.36
x1 = 0.6516	192.6
x1 = 0.7025	410.1
x1 = 0.7266	475.5
x1 = 0.7554	427.4
x1 = 0.7826	289.1
x1 = 0.8001	191.3
x1 = 0.812	134.4
x1 = 0.8523	63.53
x1 = 0.8708	39.93
x1 = 0.8974	19.56
x1 = 0.9113	9.963
x1 = 0.9432	4.507
x1 = 0.9687	2.537
x2 = 0.004631	2.323

C=COC(C)=O + CCCCO
303.15 K, 101.33 kPa
Settings	viscosity [mPa·s]
x1 = 0.1008	1.622
x1 = 0.1999	1.211
x1 = 0.3008	0.944
x1 = 0.3993	0.768
x1 = 0.5055	0.634
x1 = 0.6002	0.547
x1 = 0.6998	0.482
x1 = 0.7997	0.433
x1 = 0.8749	0.405

CC(C)c1ccccc1 + CCCCO
viscosity [mPa·s], 101 kPa
Settings	298.15 K	303.15 K	308.15 K	313.15 K	318.15 K	323.15 K
x1 = 0.0989	2.069	–	1.657	–	–	–
x1 = 0.1844	1.723	–	1.398	–	–	–
x1 = 0.2877	1.417	–	1.135	–	–	–
x1 = 0.3941	1.188	–	0.9456	–	–	–
x1 = 0.5189	1.001	–	0.8025	–	–	–
x1 = 0.6544	0.8693	–	0.7291	–	–	–
x1 = 0.796	0.7776	–	0.7157	–	–	–
x2 = 0.1001	–	0.6982	0.6545	0.6143	0.5795	0.5481
x2 = 0.1998	–	0.7295	0.6815	0.6366	0.5969	0.5613
x2 = 0.3007	–	0.7788	0.7225	0.6725	0.6285	0.5885
x2 = 0.3997	–	0.8423	0.7784	0.7209	0.6696	0.6249
x2 = 0.4999	–	0.9355	0.8588	0.7901	0.7288	0.6767
x2 = 0.6	–	1.068	0.9725	0.8867	0.8131	0.7485
x2 = 0.6992	–	1.252	1.129	1.022	0.9275	0.848
x2 = 0.7999	–	1.474	1.323	1.187	1.068	0.9682
x2 = 0.9006	–	1.837	1.629	1.452	1.298	1.168
